In paper PMC9666555, “Genuine selective caspase-2 inhibition with new irreversible small peptidomimetics” (Cell Death & Disease, 2022):

Experiments:
recombinant human Casp2 = target: T1, recombinant human Casp2 (Homo sapiens, UniProt P42575); assay: Enzyme mechanistic studies (Ki, k3, k3/KI), Caspase-2; type: biochemical; settings: irreversible inhibitors, progress curve method
T1 sequence (P42575 170-325 limits assumed): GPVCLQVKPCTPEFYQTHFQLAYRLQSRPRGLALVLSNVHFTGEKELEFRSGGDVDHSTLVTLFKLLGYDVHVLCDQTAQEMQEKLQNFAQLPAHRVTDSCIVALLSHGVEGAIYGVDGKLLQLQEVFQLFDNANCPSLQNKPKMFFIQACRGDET
T1 sequence (P42575 348-452 limits assumed): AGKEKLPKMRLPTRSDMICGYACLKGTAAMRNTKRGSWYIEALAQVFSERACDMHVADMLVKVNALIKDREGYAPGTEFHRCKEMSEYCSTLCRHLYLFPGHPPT
Method: (§1) For reversible inhibitors, the mechanisms of inhibition were determined by varying substrate and inhibitor concentrations and using Lineweaver−Burk representations to determine the inhibition constants Ki of competitive inhibitors (Ki = [E][I]/[EI]). For suicide inhibitors, inactivation can be represented by the minimum kinetic scheme (Eq. 2), where E and I are the free forms of enzyme and inhibitor, E * I a kinetic chimera of the Michaelis complex and E − I the covalent complex (inactivated enzyme).2 E+I⇄KIE*I→k3E−I
(§2) KI and k3 are the kinetic constants characterizing the inactivation process and the k3/KI ratio is an index of the inhibitory potency. The first-order rate constant, k3, and the apparent dissociation constant, KI, were determined for Caspase-2 and -3 using the progress curve method. Briefly, the enzyme activities were measured continuously for 120 min. To determine the kinetic parameters, progress curves were obtained at several inhibition concentrations using fixed substrate concentration. The product released for each inhibitor concentration was plotted versus the time following Eq. 3 where the constant π depended on [I]’, a modified inhibitor concentration due to substrate competition, according to Eq. 4. [I]’ is defined by Eq. 5, where KM was Michaelis constant for the enzymatic hydrolysis of the appropriate fluorogenic substrate. The ratio k3/KI was obtained by fitting the experimental data to the equations (F.U., fluorescence unit):3 F.U.=∫0tvidt+F.U0−vo×e^−π×t/π+F.U.0 4 π=k3×[I]^′/KI+[I]^′ 5 [I]^′=[I]/1+S/KM
Linear and nonlinear regression fits of the experimental data to the equations were performed with KaleidaGraph software. The experimental conditions were [Caspase-2]0 = 0.2 nM, [Ac-VDVAD-AMC]0 = 25 µM and [Caspase-3]0 = 0.1 nM, [Ac-DEVD-AMC]0 = 10 µM; [I]0 = 0–100 µM.

recombinant human Casp3 = target: T2, recombinant human Casp3 (Homo sapiens, UniProt P42574); assay: Enzyme mechanistic studies (Ki, k3, k3/KI), Caspase-3; type: biochemical; settings: irreversible inhibitors, progress curve method
T2 sequence (P42574 29-175 limits assumed): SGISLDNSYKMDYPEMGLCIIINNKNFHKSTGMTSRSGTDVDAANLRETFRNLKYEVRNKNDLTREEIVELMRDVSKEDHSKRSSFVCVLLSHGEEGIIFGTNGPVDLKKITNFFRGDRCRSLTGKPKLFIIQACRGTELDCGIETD
T2 sequence (P42574 176-277 limits assumed): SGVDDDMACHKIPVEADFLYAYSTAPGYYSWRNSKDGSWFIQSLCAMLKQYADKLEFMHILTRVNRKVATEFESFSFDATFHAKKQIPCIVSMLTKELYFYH
Method: as §1, §2
Linear and nonlinear regression fits of the experimental data to the equations were performed with KaleidaGraph software.

[1] = design: method as in PMID 21881605; settings: cited from earlier work
[2] = system: Molt4 lymphoid human cells; assay: Panobistat (LBH589)-induced cell death in Molt4 cells (propidium iodide, flow cytometry); type: cell-based; settings: Molt4, 1 h pretreatment (30 µM or indicated doses), 25 nM LBH589 24 h
Method: (§3) HeLa cells (obtained from ATCC) were cultured in Dulbecco’s Modified Eagle Medium (DMEM, High Glucose, GlutaMAX™, Pyruvate) supplemented with antibiotics and 10% fetal calf serum (FCS) (Gibco, Life Technologies) and maintained in T75 Flasks at 1 × 10^6 cells per flask. Twenty-four hours before treatments, HeLa cells were transferred to 6-well plates (8 × 10^4 cells/well). The lymphoblastoid cell line Molt4cl8 was a gift from Dr. Bernard Krust (Inserm, University Paris 5) and was cultured in RPMI 1640 Glutamax medium supplemented with Hepes, antibiotics, and 10% FCS. HEK293 cells were obtained from ATCC (CRL-1573) and cultured in DMEM with Glutamax and 25 mM glucose (Life Technologies) supplemented with 10% FCS and antibiotics. For cell death induction, the following agents were added to cell cultures: Vincristine (Sigma) and Panobistat (LBH589; Selleck). Cell death was analyzed using fluorescence microscopy (Axio-observer Z1, Zeiss; equipped with CCD camera CoolsnapHQ2, Ropert Scientific) and cytofluorometry (MACSQuant® VYB; Miltenyi Biotec, Bergisch Gladbach, Germany) after labeling with propidium iodide (1 µg/mL; 10 min; 37 °C; Life Technologies) and Hoechst 33342 (1 µg/mL; 5 min; RT; Sigma).
Fig. 5 LJ2 inhibits cell death induced by microtubule destabilization and hydroxamic acid-based deacetylase (HDAC) inhibition. a Effect of the irreversible Caspase-2 inhibitors LJ2 against vincristine-induced cell death. HeLa cells were pretreated for 1 h with the indicated doses of LJ2, Q-VD-OPh, or Q-LETD-OPh, then treated with vincristine (VCR) as in Fig. 2, then incubated with propidium iodide at 2 μg/mL for 10 min and analyzed by flow cytometry. […] Molt4 lymphoid human cells where were pretreated for 1 h with 30 µM of LJ2, Q-VD-OPh, or Belnacasan (VX-765), then treated for 24 h with 25 nM of LBH589, then incubated with propidium iodide as in (a) and analyzed by flow cytometry. […] Molt4 cells were treated as in (b) with the indicated doses of LJ2 or Q-VD-OPh and analyzed by flow cytometry. […]

HeLa cells = assay: Vincristine-induced HeLa cell death (propidium iodide, flow cytometry); type: cell-based, human; settings: 1 h pretreatment, 20 nM vincristine 44 h
Method: as §3
Fig. 2 q33 and h33 are protective against the cytocidal effect of Vincristine. a Vincristine induces HeLa cell death. Cells were incubated for 44 h at 37 °C with 20 nM Vincristine (VCR), then incubated with propidium iodide at 2 μg/mL for 10 min and analyzed by flow cytometry to quantify plasma membrane permeabilization. Histograms show fluorescence intensity detected by flow cytometry (one representative experiment) in the presence (VCR) or Absence (Co.) of Vincristine. % of propidium iodide-positive cells are indicated for both conditions. b Dose–response of Vincristine-induced cell death. HeLa cells were incubated and treated as in (a) with the indicated doses of Vincristine (VCR) and analyzed by flow cytometry. […] Representative fluorescence microscopy micrographs of cells treated for 44 h with 20 nM vincristine (VCR) or not (Co.) and stained with Hoechst 33342. Vincristine induces progressive nuclear changes with first condensed nuclei (arrows) and then apoptotic bodies (dashed arrow). d Broad-spectrum irreversible caspase inhibitors prevent vincristine-induced cell death. HeLa cells were pretreated for 1 hr with the indicated broad-spectrum irreversible caspases inhibitors (z-VAD(OMe)-fmk at 30 μM, Q-VD-OPh 30 μM, Emricasan 10 μM, or the negative control Q-VE-OPh 30 μM), then treated with vincristine as in panel (a), and analyzed by flow cytometry. Histograms show the mean ± SD of 3 independent experiments (***p value < 0.001). e Effect of the reversible Caspase-2 inhibitors q33 and h33 against vincristine-induced cell death. HeLa cells were pretreated for 1 h with the indicated doses of q33 or h33, then treated with vincristine as in panel a, and analyzed by flow cytometry. Histograms show the mean ± SD of three independent experiments (*p value < 0.1). TEXT PRINTED IN THE PICTURE: (a) VCR: 39,5 % DOUBTS OF THE COPYIST ABOUT THIS PICTURE: Panel a: the picture prints no measure beside "39,5 %" and "4.1%". I assigned 39,5 % to VCR only because it stands by the grey VCR peak. / Panel a: "4.1%" seems to belong to the untreated control (Co.). That is not a substance, so it is left out.
Fig. 5 LJ2 inhibits cell death induced by microtubule destabilization and hydroxamic acid-based deacetylase (HDAC) inhibition. a Effect of the irreversible Caspase-2 inhibitors LJ2 against vincristine-induced cell death. HeLa cells were pretreated for 1 h with the indicated doses of LJ2, Q-VD-OPh, or Q-LETD-OPh, then treated with vincristine (VCR) as in Fig. 2, then incubated with propidium iodide at 2 μg/mL for 10 min and analyzed by flow cytometry. Histogram data are mean ± SD (n = 3, *p value < 0.01). b Effect of Caspases-inhibitors against Panobistat (LBH589)-induced cell death. […]

[3] = design: method as in PMID 31870950, PMID 31887369; settings: cited from earlier work

## COC(=O)CC(NC(=O)[C@H](C)NC(=O)C(NC(=O)[C@H](CC(=O)OC)NC(=O)[C@@H](NC(=O)c1ccc2ccccc2n1)C(C)C)C(C)C)C(=O)COc1c(F)cccc1F (stereo in doubt) [TRP601, Quinolin-2-carbonyl-VD(OMe)VAD(OMe)-CH2-O(2,6F2)Ph, reference compound]
Recombinant human Casp2
  Casp2 k3: 5,56 ms^−1
  KI (inactivation): 378 nM
Recombinant human Casp3
  Casp3 k3: 4,24 ms^−1
  Casp3 k3/KI: 25 126 M^−1 s^−1
  KI (inactivation): 209 nM
[1]; after intraperitoneal and intraveinous administration
  neuroprotection: confer neuroprotection
[1]
  Casp2 in the brain: inhibit Casp2 in the brain
  toxicity in regulatory rodent and non-rodent studies: non-toxic

## CCO[C@@H]1OC(=O)C[C@@H]1NC(=O)[C@@H]1CCCN1C(=O)[C@@H](NC(=O)c1ccc(N)c(Cl)c1)C(C)(C)C [Belnacasan, (S)-1-((S)-2-{[1-(4-amino-3-chloro-phenyl)-methanoyl]-amino}-3,3-dimethyl-butanoyl)-pyrrolidine-2-carboxylic acid ((2R,3S)-2-ethoxy-5-oxo-tetrahydro-furan-3-yl)-amide]
[2]
  effect against Panobistat (LBH589)-induced cell death: did not affect cell death

## C[C@H](NC(=O)C(=O)Nc1ccccc1C(C)(C)C)C(=O)N[C@@H](CC(=O)O)C(=O)COc1c(F)c(F)cc(F)c1F [Emricasan]
HeLa cells; Homo sapiens, inhibitor 10 µM
  inhibition at 10 µM: 95%
[3]
  efficacy in large clinical phase 3 studies for the treatment of NASH: failed to demonstrate efficacy
  toxicity on chronic administration in humans: not toxic nor carcinogenic

## CC(C)[C@H](NC(=O)c1ccc2ccccc2n1)C(=O)N[C@@H](CC(=O)O)C(=O)COc1c(F)cccc1F [Q-VD-OPh]
HeLa cells; inhibitor 30 µM
  inhibition of vincristine-induced cell death: > 90%
[2]
  effect against Panobistat (LBH589)-induced cell death: strongly inhibited cell death
